Values quoted from earlier work in patent US20110086070A1, “Orally disintegrating compositions of rhein or diacerein” (priority 2008, published 2011).
Counter-ions that a name gives are not always drawn.

Assays:
[1] = oral route

Compound | absorption by the digestive tract [1] | solubility in solvents (solvents such as water, alcohols, acetone, dichloromethane and chloroform) | solubility in water (water, disclosed in EP 243,968)
CC(=O)Oc1cccc2c1C(=O)c1c(OC(C)=O)cc(C(=O)O)cc1C2=O [Diacerein, 4,5-bis(acetyloxy)9,10-dihydro-4,5-dihydroxy-9,10-dioxo-2-anthracenecarboxylic acid] | cannot be completely absorbed | practically insoluble | 
CC(=O)Oc1cccc2c1C(=O)c1c(OC(C)=O)cc(C(=O)O)cc1C2=O [potassium salt of diacerein] |  |  | water-soluble
